# Results reported in patent US9687522B2, “Methods of treating a subject afflicted with an autoimmune disease using predictive biomarkers of clinical response to glatiramer acetate therapy in multiple sclerosis” (TEVA PHARMACEUTICAL INDUSTRIES, LTD., priority 2010, dated 2017).
# Experiments:
# IL-18 = test: Serum IL-18 by ELISA in GA-treated MS patients; type: in vivo, human
# Excerpt: (§1) Approximately 60 cc of blood was obtained by venipuncture from each MS patient pre-treatment and at successive time points during treatment (3 months, 6 months, 9-12 months and 24 months). PBMC were purified using Ficoll-Hypaque gradients as described in the supplier's protocol (ICN Biomedicals Inc. Ohio, USA). Samples from collaborating centers were sent via overnight FedEx™ delivery at room temperature and processed immediately upon arrival.
# (§2) Interleukin-18 and caspase-1 levels were detected by human ELISA kits (Sandwich ELISA, Bender Nedaystems, USA). The sensitivity of the ELISA was 9.2 and 3.3 pg/ml for IL-18 and caspase-1 respectively. TGF-β, TNF-α, IL-4, IFN-γ, IL-17 and IL-10 levels were detected by human ELISA kits from ebioscience (San Diego Calif., 92121 USA). The sensitivity of the ebioscience kits were 60 pg/ml, 4 pg/ml, 2 pg/ml, 4 pg/ml, 4 pg/ml and 2 pg/ml respectively. BDNF was detected by the Human BDNF ELISA kit from Chemicon International (catalog #CYT306). The sensitivity of the BDNF ELISA was 7.8 pg/ml. […] Duplicates should be within 20% of the mean.
# IFN-γ = test: Serum IFN-γ by ELISA in GA-treated MS patients; type: in vivo, human
# Excerpt: as §1, §2
# IL-4 [1] = test: Serum IL-4 by ELISA in GA-treated MS patients; type: in vivo, human
# Excerpt: as §1, §2
# TGF-β = test: Serum TGF-β by ELISA in GA-treated MS patients; type: in vivo, human
# Excerpt: as §1, §2
# TNF-α = test: Serum TNF-α by ELISA in GA-treated MS patients; type: in vivo, human
# Excerpt: as §1, §2
# IL-4 [2] = test: IL-4 ELISPOT in ex-vivo PBMC of GA-treated MS patients; type: cell-based, human; parameters: unit not given here; settings: CD3/CD28 stimulated PBMC
# Excerpt: as §1
# Human IFN-γ (Th1 indicator) and IL-4 (Th2 indicator) were measured by the ELISPOT assay according to the manufacturer's protocol (BD Biosciences, San Diego, Calif., USA). Briefly, ELISPOT plates (PVDF plate, Millipore Corporation, MA, USA) were coated with 100 μl/well of 5 μg/ml capture antibody at 4° C. over night. The plates were then washed with PBS, and incubated with 200 μl/well of blocking solution (culture medium) for 2 hours. PBMC (2×10^5 cells/well for IFN-γ and 4×10^5 cells/well for IL-4 detection) and antigen (GA 40 and 100 μg/ml, TT 5 μg/ml, CD3Ab (2.5 μg/ml)/CD28 Ab (1 μg/ml)) was added and cultured overnight at 37° C. in a 5% CO2 incubator. Samples were tested in triplicate wells in response to each antigen. After overnight culture, the plates were washed twice with deionized water and three times with PBS, then incubated with 100 μl of 2.0 μg/ml biotinylated antibody for 2 hours at room temperature. The plates were then washed three times with wash buffer (0.05% Tween-20 PBS), and incubated with 100 μl of 1:100 dilution of Avidin-HRP for 1 hour at room temperature and washed three times with wash buffer. Finally 100 μl of AEC (3-amino-9-ethyl-carbazole) substrate was added and the reaction was stopped by washing plates with distilled water. Spots were counted and analyzed by CTL Analyzers LLC ELISPOT Plate Reader (Cleveland, Ohio, USA).
# PBMC = test: Lymphoproliferation assay (3H-thymidine) of ex-vivo PBMC; type: cell-based, human
# Experimental: as §1
# 2×10^5 PBMC/well were seeded in 96 well U-bottom micro titer plate in the absence of antigen (unstimulated condition) (US) or the presence of GA at 40 and 100 μg/ml (Teva Pharmaceutical Industries, Ltd., Israel), tetanus toxoid (TT 5 μg) obtained from UMASS (University of Mass, Worcester, Mass.). The latter was used as a control antigen. Supernatants were collected from cultured cells at days 1, 3 and 5 for various assays. After 5 days, 1 μCi ^3H-thymidine was added. Cells were harvested 18 hours later using TOMTEC cell harvester (TOMTEC, Hamden Conn.). Incorporated radioactivity was measured using a liquid Scintillation counter (Wallac MicroBeta Trilux, PerkinElmer, Boston, Mass.).
# BDNF = test: Serum BDNF by ELISA in GA-treated MS patients; type: in vivo, human; settings: GA-R and GA-HR/NR, all treatment time points
# Excerpt: as §1, §2
# RRMS subjects = settings: cited from earlier work
# [3] = GA 20 mg, largest controlled study
substance,measurement,setting,value
Glatiramer acetate [GA],Serum IL-18 level,"IL-18; HR/NR, 3 mo",284 ± 35 pg/mL
same,Serum IL-18 level,"IL-18; HR/NR, 6 mo",310 ± 39 pg/mL
same,Serum IL-18 level,"IL-18; HR/NR, 9-12 mo",283 ± 22 pg/mL
same,Serum IL-18 level,"IL-18; HR/NR, 24 mo",265 ± 15 pg/mL
same,Serum IL-18 level,"IL-18; HR/NR, Pre-Rx",300 ± 29 pg/mL
same,Serum IL-18 level,"IL-18; R, 3 mo",279 ± 23 pg/mL
same,Serum IL-18 level,"IL-18; R, 6 mo",189 ± 26 pg/mL
same,Serum IL-18 level,"IL-18; R, 9-12 mo",262 ± 15 pg/mL
same,Serum IL-18 level,"IL-18; R, 24 mo",260 ± 12 pg/mL
same,Serum IL-18 level,"IL-18; R, Pre-Rx",304 ± 26 pg/mL
same,"Δ IL-18 6 months, Median (Non-Responders)","IL-18; serum, change from baseline",2
same,"Δ IL-18 6 months, Median (Responders)","IL-18; serum, change from baseline",−102
same,Serum IFN-γ level,"IFN-γ; HR/NR, 3 mo",27 ± 1.45 pg/mL
same,Serum IFN-γ level,"IFN-γ; HR/NR, 6 mo",26 ± 1.53 pg/mL
same,Serum IFN-γ level,"IFN-γ; HR/NR, 9-12 mo",52 ± 5.8 pg/mL
same,Serum IFN-γ level,"IFN-γ; HR/NR, 24 mo",45 ± 5.3 pg/mL
same,Serum IFN-γ level,"IFN-γ; HR/NR, Pre-Rx",25 ± 1.7 pg/mL
same,Serum IFN-γ level,"IFN-γ; R, 3 mo",25 ± 2.1 pg/mL
same,Serum IFN-γ level,"IFN-γ; R, 6 mo",24 ± 1.9 pg/mL
same,Serum IFN-γ level,"IFN-γ; R, 9-12 mo",48 ± 6.3 pg/mL
same,Serum IFN-γ level,"IFN-γ; R, 24 mo",45 ± 3.8 pg/mL
same,Serum IFN-γ level,"IFN-γ; R, Pre-Rx",29 ± 2.3 pg/mL
same,Serum IL-4 level,"IL-4 [1]; HR/NR, 3 mo",13 ± 0.92 pg/mL
same,Serum IL-4 level,"IL-4 [1]; HR/NR, 6 mo",13 ± 1.4 pg/mL
same,Serum IL-4 level,"IL-4 [1]; HR/NR, 9-12 mo",18 ± 1.4 pg/mL
same,Serum IL-4 level,"IL-4 [1]; HR/NR, 24 mo",16 ± 1 pg/mL
same,Serum IL-4 level,"IL-4 [1]; HR/NR, Pre-Rx",14 ± 0.70 pg/mL
same,Serum IL-4 level,"IL-4 [1]; R, 3 mo",16 ± 0.70 pg/mL
same,Serum IL-4 level,"IL-4 [1]; R, 6 mo",17 ± 0.81 pg/mL
same,Serum IL-4 level,"IL-4 [1]; R, 9-12 mo",17 ± 1.8 pg/mL
same,Serum IL-4 level,"IL-4 [1]; R, 24 mo",16 ± 1.0 pg/mL
same,Serum IL-4 level,"IL-4 [1]; R, Pre-Rx",16 ± 0.60 pg/mL
same,"Δ IL-4 6 months, Median (Non-Responders)","IL-4 [1]; serum, change from baseline",−1.5
same,"Δ IL-4 6 months, Median (Responders)","IL-4 [1]; serum, change from baseline",1
same,Serum TGF-β level,"TGF-β; HR/NR, 3 mo",1921 ± 150 pg/mL
same,Serum TGF-β level,"TGF-β; HR/NR, 6 mo",1723 ± 147 pg/mL
same,Serum TGF-β level,"TGF-β; HR/NR, 9-12 mo",1727 ± 97 pg/mL
same,Serum TGF-β level,"TGF-β; HR/NR, 24 mo",1844 ± 53 pg/mL
same,Serum TGF-β level,"TGF-β; HR/NR, Pre-Rx",1796 ± 95 pg/mL
same,Serum TGF-β level,"TGF-β; R, 3 mo",1908 ± 70 pg/mL
same,Serum TGF-β level,"TGF-β; R, 6 mo",1968 ± 75 pg/mL
same,Serum TGF-β level,"TGF-β; R, 9-12 mo",1901 ± 64 pg/mL
same,Serum TGF-β level,"TGF-β; R, 24 mo",1983 ± 93 pg/mL
same,Serum TGF-β level,"TGF-β; R, Pre-Rx",1774 ± 48 pg/mL
same,Serum TNF-α level,"TNF-α; HR, 3 mo",56 ± 5.0 pg/mL
same,Serum TNF-α level,"TNF-α; HR, 6 mo",55 ± 7.0 pg/mL
same,Serum TNF-α level,"TNF-α; HR, 9-12 mo",59 ± 5.18 pg/mL
same,Serum TNF-α level,"TNF-α; HR, 24 mo",52.4 ± 9.64 pg/mL
same,Serum TNF-α level,"TNF-α; HR, Pre-Rx",51 ± 3.0 pg/mL
same,Serum TNF-α level,"TNF-α; R, 3 mo",47 ± 3.3 pg/mL
same,Serum TNF-α level,"TNF-α; R, 6 mo",44 ± 4.6 pg/mL
same,Serum TNF-α level,"TNF-α; R, 9-12 mo",54 ± 4.24 pg/mL
same,Serum TNF-α level,"TNF-α; R, 24 mo",50.13 ± 1.5 pg/mL
same,Serum TNF-α level,"TNF-α; R, Pre-Rx",57 ± 3.6 pg/mL
same,"Δ TNF-alpha 6 months, Median (Non-Responders)","TNF-α; serum, change from baseline",1
same,"Δ TNF-alpha 6 months, Median (Responders)","TNF-α; serum, change from baseline",−14
same,IL-4 expression (ELISPOT),"IL-4 [2]; HR/NR, 3 mo",14 ± 4
same,IL-4 expression (ELISPOT),"IL-4 [2]; HR/NR, 6 mo",20 ± 6
same,IL-4 expression (ELISPOT),"IL-4 [2]; HR/NR, 9-12 mo",23 ± 5
same,IL-4 expression (ELISPOT),"IL-4 [2]; HR/NR, 24 mo",21 ± 3.5
same,IL-4 expression (ELISPOT),"IL-4 [2]; HR/NR, Baseline",39 ± 9
same,IL-4 expression (ELISPOT),"IL-4 [2]; R, 3 mo",44 ± 7.4
same,IL-4 expression (ELISPOT),"IL-4 [2]; R, 6 mo",45 ± 7.3
same,IL-4 expression (ELISPOT),"IL-4 [2]; R, 9-12 mo",39 ± 5.8
same,IL-4 expression (ELISPOT),"IL-4 [2]; R, 24 mo",36 ± 7.2
same,IL-4 expression (ELISPOT),"IL-4 [2]; R, Baseline",35 ± 5.9
same,ex-vivo PBMC proliferative response over the course of GA treatment,"PBMC; antigens GA 40 and 100 μg/ml, TT 5 μg/ml, ΔCPM",initial increase in the proliferative response to GA and TT at 3 months during treatment followed by a decline after 6 months of treatment
same,"PBMC proliferation, GA-R versus GA-HR/NR","PBMC; before or during treatment at 3, 6, 12 months or 2 years, p >0.05",no difference in PBMC proliferation to GA or TT between GA-R and GA-HR/NR
same,"Serum BDNF levels, change during GA treatment",BDNF,did not show significant changes during treatment from baseline in either group
same,median cumulative number of Gd-enhancing lesions,"RRMS subjects; 20 mg group, over 9 months of treatment",11 lesions
same,relapse rate,RRMS subjects; [3],1.34
same,relapse rate reduction versus placebo,RRMS subjects; [3],32%
same,tolerability,RRMS subjects; daily standard dose of 20 mg,generally well tolerated
